Columns and labels:
Assay type in all cases: functional
Staphylococcus aureus = assay: Antibacterial activity against Staphylococcus aureus ATCC 25923 at 0.4 mM; settings: read-out: IZ
Escherichia coli = assay: Antibacterial activity against Escherichia coli ATCC 25922
Pseudomonas aeruginosa = assay: Antibacterial activity against Pseudomonas aeruginosa ATCC 85327

Structure (SMILES): C=C/C(C)=C/C[C@H]1C(=C)C[C@H]2OC(=O)[C@@]3(C)CCC[C@@]1(C)[C@@H]23
- zone of inhibition at 400 µM (Staphylococcus aureus): 20 mm
- inhibition zone (IZ) (Escherichia coli): 13 mm
- inhibition zone (IZ) (Pseudomonas aeruginosa): 12 mm

Reference: ChEMBL document CHEMBL1155681, “Structure and antibacterial activity ofp6 new labdane diterpenoid from Salvia leriaefolia” (2000)
